Experimental data as given in article PMC3229523, “Identification of Lactoferricin B Intracellular Targets Using an Escherichia coli Proteome Chip” (PLoS ONE, 2011).
“Also recorded” adds a separate entry of the source. Ends that are not written are not given here. * marks the point of attachment. Biotin = O=C1N[C@H]2[C@H](CS[C@H]2CCCCC(=O)*)N1

Tests used:
E. coli K-12 MG1655 = test: E. coli growth inhibition (growth curves, OD595); type: cell-based; conditions: 22.4 µM, approx. 10^7 CFU/ml, LB medium, 37°C with shaking, OD595 every 20 min for 7 h 20 min, PBS negative control, Figure 2
Method: The E. coli K-12 MG1655 strain was first inoculated into LB medium and incubated at 37°C with shaking for 16 h. After incubation, the culture was diluted to approximately 10^7 CFU/ml using LB medium. Then, 22.4 µM of N-terminal biotinylated LfcinB (Kelowna Inc.), LfcinB (Kelowna Inc.) or biotin (Thermo) were individually added to the diluted cultures in a 96-well plate. PBS was used as a negative control. Finally, each compound or PBS with E. coli was incubated at 37°C with shaking and the growth curves were observed by measuring the OD595 value every 20 min for 7 h 20 min in a microplate reader (Synergy 2, BioTek®).

[1] = test system: E. coli K-12 proteins (E. coli proteome chip); test: E. coli proteome chip assay; type: binding; conditions: 10 nM N-terminal biotinylated LfcinB, 1% BSA, room temperature, 1 h; ratio DyLight 649 to DyLight 549, ProCAT local cut-off; triplicate
Method: To fabricate the proteome chips, E. coli K-12 proteins were expressed and purified in a high-throughput fashion. The procedure was modified from Chen et al.. Briefly, E. coli protein expression clones fused with a 6×-His tag, provided by Dr. Mori, were first incubated with glass beads (Biospec Products Inc.) in 2× LB medium containing 30 µg/ml chloramphenicol in 96 DeepWell™ plates (Nunc) at 37°C overnight. The overnight cultures were then diluted with 2× LB that contains 30 µg/ml chloramphenicol to the OD595 value of 0.1. When the cells grew to an OD595 value of 0.7–0.9, 500 µM of isopropyl β-D-thiogalactoside (IPTG) was added to induce protein expression at 37°C for ∼3.5 h. The cultures were then harvested by centrifugation at 3220 g for 5 min at 4°C, and the pellets were stored at −80°C before purification. […]
For image processing of chip assay results, Genepix Pro 6.0 was used to align the protein spot of each individual protein and then all aligned protein image signals were exported as a text file. The text file was analyzed by ProCAT [17], a signal normalization method. The relative ability of LfcinB to bind to each protein was estimated by the ratio of the fluorescence intensity of LfcinB to the fluorescence intensity of an anti-His antibody after the normalization. […]

| Compound | growth curves / inhibition of E. coli growth (E. coli K-12 MG1655) | number of proteins selected as LfcinB-binding (top 5% of the E. coli proteome, membrane proteins ruled out) [1] [proteins] |
| --- | --- | --- |
| biotinylated LfcinB: N-terminal biotinylated LfcinB (Kelowna Inc.), used as probe in chip assays (Biotin-FKCRRWQWRMKKLGAPSITCVRRAF; ends and bridges not checked) | exhibited the same inhibition of E. coli growth; also recorded: exhibit the same antibacterial activity | 153 |
| O=C(O)CCCC[C@@H]1SC[C@@H]2NC(=O)N[C@@H]21 [biotin, reference compound] | had no influence on E. coli growth | – |
